Laboratory results: paper PMC6270614 (Molecules, 2013)
Like-named read-outs stand apart in the source and are kept apart here.

Key:
CB1 receptor = conditions: cited from earlier work
CB2 [1] = biological target: CB2; design: method as in PMID 21885167; conditions: Figure 1; cited from earlier work
[2] = biological target: human cannabinoid CB1 receptor (Homo sapiens, UniProt P21554); experiment: CB1 receptor radioligand ([3H]CP-55,940) displacement binding assay; conditions: for inhibition at 1 µM: read-out: displacement of [3H]CP-55,940 in the preliminary screen (printed in the CB1 Ki column)
Description: In all cases, Ki values were calculated by applying the Cheng-Prusoff equation [34] to the IC50 values (obtained by GraphPad, GraphPad Software, Inc., La Jolla, CA, USA) for the displacement of the bound radioligand by increasing concentrations of the test compounds (after three separate experiments for each compound).

CB2 [3] = tested on: CB2; design: method as in PMID 21420860; conditions: Figure 1; read-out: IC50 cAMP (CB2); cited from earlier work
CB1 [4] = tested on: CB1; design: method as in PMID 21420860; conditions: Figure 1; read-out: IC50 cAMP (CB1); cited from earlier work
CB2 [5] = tested on: CB2; design: method as in PMID 21669533; conditions: Figure 1; cited from earlier work
CB1 [6] = tested on: CB1; design: method as in PMID 21669533; conditions: Figure 1; cited from earlier work
[7] = CoMFA training and test set input, read-out: Experimental activity (pIC50) (converted)
[8] = CB1 (Ki, nM), displacement of 0.5 nM [3H]CP-55,940, means ± SEM, n = 3, Cheng-Prusoff from IC50
[9] = Experimental activity (pIC50, M), CoMFA training and test set input

Sequence of human cannabinoid CB1 receptor (P21554 whole entry): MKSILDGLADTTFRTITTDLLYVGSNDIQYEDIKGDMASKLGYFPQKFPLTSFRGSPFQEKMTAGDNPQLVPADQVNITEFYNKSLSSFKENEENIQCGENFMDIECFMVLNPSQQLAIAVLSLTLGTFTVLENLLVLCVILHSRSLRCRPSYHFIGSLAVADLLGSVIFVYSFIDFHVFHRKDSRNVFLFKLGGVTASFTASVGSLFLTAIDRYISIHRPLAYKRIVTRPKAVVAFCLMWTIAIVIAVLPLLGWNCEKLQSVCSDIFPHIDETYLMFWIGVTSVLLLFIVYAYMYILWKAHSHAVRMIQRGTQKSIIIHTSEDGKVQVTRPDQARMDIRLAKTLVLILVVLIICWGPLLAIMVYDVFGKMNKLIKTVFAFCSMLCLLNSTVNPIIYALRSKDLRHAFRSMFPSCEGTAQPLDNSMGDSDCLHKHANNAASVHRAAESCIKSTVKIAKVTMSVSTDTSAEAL

Row | SMILES | melting point [°C] | IC50 [2, 7] [nM] | Ki ([2]; read-out: CB1 (Ki)) [nM] | also measured
1 | CCCCCn1c(C)c(C(=O)c2ccccc2I)c2ccccc21 [AM679] |  |  |  | Ki (CB1 receptor; non-selective CB1 and CB2 agonist): 13.5 nM
2 | CCCCCn1c(C)c(C(=O)c2cccc3ccccc23)c2cccnc21 [Abbott] |  |  |  | pKi (CB1) (CB1 receptor; Figure 1): 7.9; pKi (CB2) (CB2 [1]): 7.3
3 | c1ccc2c(Cn3c(-c4ccncc4)nc4ccccc43)cccc2c1 [Compound 41, 1-(Naphthalen-1-ylmethyl)-2-(pyridin-4-yl)-1H-benzo[d]imidazole] | 163.3 to 163.8 | 274 | 149 ± 1.9 | 
4 | Fc1ccc2c(c1)nc(-c1ccncc1)n2Cc1cccc2ccccc12 [Compound 42, 5-Fluoro-1-(naphthalen-1-ylmethyl)-2-(pyridin-4-yl)-1H-benzo[d]imidazole] | 151.5 to 152.5 |  |  | inhibition at 1 µM [2]: < 50%
5 | Fc1ccc2nc(-c3ccncc3)n(Cc3cccc4ccccc34)c2c1 [Compound 43, 6-Fluoro-1-(naphthalen-1-ylmethyl)-2-(pyridin-4-yl)-1H-benzo[d]imidazole] | 167.4 to 168.1 | 1120 | 614 ± 54.7 | 
6 | Cc1cc2nc(-c3ccncc3)n(Cc3cccc4ccccc34)c2cc1C [Compound 44, 5,6-Dimethyl-1-(naphthalen-1-ylmethyl)-2-(pyridin-4-yl)-1H-benzo[d]imidazole] | 156.8 to 157.6 |  |  | Ki [2, 8]: 4.84 ± 2 nM; IC50 [2, 9]: 8.87 nM; IC50 ([2]; IC50 (CB1 displacement), displacement of [3H]CP-55,940): < 10 nM
7 | c1ccc(-c2nc3ccccc3n2Cc2ccc3ccccc3c2)nc1 [Compound 45, 1-(Naphthalen-2-ylmethyl)-2-(pyridin-2-yl)-1H-benzo[d]imidazole] | 150.7 to 151.8 |  |  | Ki [2, 8]: 31.8 ± 12 nM; IC50 [2, 9]: 58.3 nM
8 | Fc1ccc2c(c1)nc(-c1ccccn1)n2Cc1ccc2ccccc2c1 [Compound 46, 5-Fluoro-1-(naphthalen-2-ylmethyl)-2-(pyridin-2-yl)-1H-benzo[d]imidazole] | 165.7 to 166.4 |  |  | inhibition at 1 µM [2]: < 50%
9 | Fc1ccc2nc(-c3ccccn3)n(Cc3ccc4ccccc4c3)c2c1 [Compound 47, 6-Fluoro-1-(naphthalen-2-ylmethyl)-2-(pyridin-2-yl)-1H-benzo[d]imidazole] | 170.5 to 171.3 |  |  | inhibition at 1 µM [2]: < 50%
10 | c1cncc(-c2nc3ccccc3n2Cc2ccc3ccccc3c2)c1 [Compound 49, 1-(Naphthalen-2-ylmethyl)-2-(pyridin-3-yl)-1H-benzo[d]imidazole] | 146.3 to 147 | 3380 | 1840 ± 79.8 | 
11 | Fc1ccc2c(c1)nc(-c1cccnc1)n2Cc1ccc2ccccc2c1 [Compound 50, 5-Fluoro-1-(naphthalen-2-ylmethyl)-2-(pyridin-3-yl)-1H-benzo[d]imidazole] | 175.7 to 176.8 | 600 | 327 ± 60 | 
12 | Cc1cc2nc(-c3cccnc3)n(Cc3ccc4ccccc4c3)c2cc1C [Compound 52, 5,6-Dimethyl-1-(naphthalen-2-ylmethyl)-2-(pyridin-3-yl)-1H-benzo[d]imidazole] | 138.5 to 139.5 |  |  | Ki [2, 8]: 140 ± 10.1 nM; IC50 [2, 9]: 256 nM
13 | Fc1ccc2c(c1)nc(-c1ccncc1)n2Cc1ccc2ccccc2c1 [Compound 54, 5-Fluoro-1-(naphthalen-2-ylmethyl)-2-(pyridin-4-yl)-1H-benzo[d]imidazole] | 177.8 to 178.5 |  |  | Ki [2, 8]: 44.4 ± 5.5 nM; IC50 [2, 9]: 81.5 nM
14 | Fc1ccc2nc(-c3ccncc3)n(Cc3ccc4ccccc4c3)c2c1 [Compound 55, 6-Fluoro-1-(naphthalen-2-ylmethyl)-2-(pyridin-4-yl)-1H-benzo[d]imidazole] | 163.5 to 164.1 | 1040 | 567 ± 7 | 
15 | Cc1cc2nc(-c3ccncc3)n(Cc3ccc4ccccc4c3)c2cc1C [Compound 56, 5,6-Dimethyl-1-(naphthalen-2-ylmethyl)-2-(pyridin-4-yl)-1H-benzo[d]imidazole] | 133.7 to 134.5 | 442 | 241 ± 10 | 
16 | O=C(c1cccc(Cl)c1Cl)c1nc(CN2CCC(F)(F)CC2)c2ccccn12 [Merck] |  |  |  | IC50 (CB2 [3]): 0.3 nM; IC50 (CB1 [4]): 90 nM
17 | CCS(=O)(=O)c1ccc2c(c1)nc(C(C)(C)C)n2C[C@@H]1CCCO1 [Pfizer] |  |  |  | EC50 (CB2 [5]): 11.7 nM; EC50 (CB1 [6]): > 10000 nM
